This is an account of results in patent US10085449B2, “N-[1-((6-chloropyridin-3-yl)methyl)pyridin-2(1H)-ylidene]-2,2,2- trifluoroacetamide for control of agricultural/horticultural pests” (priority 2010, dated 2018).

The mortality is the share of the test organisms that died.

The subject of one series is diamondback moth. The series can be described thus: whole plant or invertebrate. The series is classed as in vivo. Conditions: Plutella xylostella, foliar. Summed up: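 Cabbage leaf discs sprayed with compound in 50% acetone/water with 0.05% Tween 20, air-dried, then infested with second-instar larvae. Held at 25 °C under 16 h light/8 h dark; mortality from dead/(live+dead) counts after 3 days, two replicates.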

Series [1] concerns house fly crude enzyme extract. The series can be described thus: In vitro metabolic test using house fly crude enzyme extract. The series is classed as in vitro ADME. Conditions: house fly crude enzyme extract with NADP+ regenerating system, 25° C., 40 hours, LC/MS. On the procedure: As mentioned in Pest Management Science, 59(3), 347-352 (2003) and the Journal of Pesticide Science, 29(2), 110-116 (2004), imidacloprid is known to be inactivated by incurring oxidative metabolism, which is thought to be one mechanism of acquiring resistance to this agent. The following experiment was carried out to confirm the effects in pests which have acquired such resistance.
An amount of 10 mL of a potassium phosphate buffer solution (pH 7.4, containing 1 mM EDTA) was added to adult house flies (0.645 g), and the flies were thoroughly homogenized in a Physcotron (Niti-On Medical and Physical Instruments Manufacturing Co.). The homogenate was then centrifuged at 10,000 g for 15 minutes. The resulting supernatant was additionally centrifuged at 100,000 g for 60 minutes, giving a precipitate. The precipitate was dissolved in 1 mL of a potassium phosphate buffer, and the resulting solution was used as the crude enzyme extract. The enzyme extraction operations were all carried out on ice or at 4° C.
The reagents were mixed in the following proportions within a 1.5 mL tube, and the reaction was effected at 25° C. for 40 hours. Following the reaction, 1 mL of acetone was added and the mixture was stirred, following which the precipitate that formed was centrifuged at 12,000 rpm for 5 minutes. […]

Where [2] appears, read: read-out: Insecticidal effects (mortality), diamondback moth second-instar larvae.

Like-named read-outs stand apart in the source and are kept apart here.

For the compound `O=C(N=c1ccccn1Cc1ccc(Cl)nc1)C(F)(F)F` [Compound 212, N-[1-((6-chloropyridin-3-yl)methyl)pyridin-2(1H)-ylidene]-2,2,2-trifluoroacetamide], in the series with diamondback moth (setting [2]), the mortality at 20 ppm stood at 100%, the mortality at 100 ppm stood at 100% and the mortality at 500 ppm was determined as 100%. In the series on diamondback moth (in Brassica oleracea, 72 h), the mortality at 100 ppm was no less than 80% and the mortality at 500 ppm was no less than 80%. For the same compound, in series [1], the “Sum of the surface area percentages for the metabolites” value is on record as 0.08%.
